Legend:
[1] = test system: 60 kinds of different human cancer cells; experiment: NCI 60-cell drug screen, one dose, whole panel; type: cell-based; conditions: mean over the tested cell lines, 1.00E−5 Molar
Method: (§1) In brief, cellular protein levels were determined after 48 hours of drug exposure by sulforhodamine B colorimetry.
(§2) The screening system in United State National Cancer Institute (NCI) consists of 60 kinds of different human cancer cells, which can be used to assay the growth-inhibiting ability or cell toxicity of a compound against various cancer and tumor at a certain concentration. The NCI had selected 6 compounds synthesized above, and performed cell toxicity assay against 60 kinds of cancer cell strains (Table 2) (DTP Human Tumor Cell Line Screen), in which each compound was assayed at a certain concentration to observe its inhibition ability or cell toxicity against various kinds of cancer and tumor.

CCRF-CEM = experiment: NCI 60-cell drug screen, one dose; type: cell-based, human; conditions: Leukemia CCRF-CEM, 1.00E−5 Molar
Method: as §1, §2

SNB-19 = experiment: NCI 60-cell drug screen, one dose; type: cell-based, human; conditions: CNS Cancer SNB-19, 1.00E−5 Molar
Method: as §1, §2

SN12C = experiment: NCI 60-cell drug screen, one dose; type: cell-based, human; conditions: Renal Cancer SN12C, 1.00E−5 Molar
Method: as §1, §2

SK-MEL-28 = experiment: NCI 60-cell drug screen, one dose; type: cell-based, human; conditions: Melanoma SK-MEL-28, 1.00E−5 Molar
Method: as §1, §2

[2] = NCI 60-cell drug screen, one dose; type: cell-based, human; conditions: Renal Cancer A489, 1.00E−5 Molar
Method: as §1, §2

HCC-2998 = experiment: NCI 60-cell drug screen, one dose; type: cell-based, human; conditions: Colon Cancer HCC-2998, 1.00E−5 Molar
Method: as §1, §2

KM12 = experiment: NCI 60-cell drug screen, one dose; type: cell-based, human; conditions: Colon Cancer KM12, 1.00E−5 Molar
Method: as §1, §2

HS 578-T = experiment: NCI 60-cell drug screen, one dose; type: cell-based, human; conditions: Breast Cancer HS 578-T, 1.00E−5 Molar
Method: as §1, §2

HL-60(TB) = experiment: NCI 60-cell drug screen, one dose; type: cell-based, human; conditions: Leukemia HL-60(TB), 1.00E−5 Molar
Method: as §1, §2

OVCAR-4 = experiment: NCI 60-cell drug screen, one dose; type: cell-based, human; conditions: Ovarian Cancer OVCAR-4, 1.00E−5 Molar
Method: as §1, §2

SR = experiment: NCI 60-cell drug screen, one dose; type: cell-based, human; conditions: Leukemia SR, 1.00E−5 Molar
Method: as §1, §2

HT29 = experiment: NCI 60-cell drug screen, one dose; type: cell-based, human; conditions: Colon Cancer HT29, 1.00E−5 Molar
Method: as §1, §2

NCI-H460 = experiment: NCI 60-cell drug screen, one dose; type: cell-based, human; conditions: Non-Small Cell Lung Cancer NCI-H460, 1.00E−5 Molar
Method: as §1, §2

SF-295 = experiment: NCI 60-cell drug screen, one dose; type: cell-based, human; conditions: CNS Cancer SF-295, 1.00E−5 Molar
Method: as §1, §2

[3] = MTT assay (relative cell survival), H1299; conditions: human, H1299 non-small cell lung cancer cells (PhTERT-SEAP), Relative MTT viability (%)
Method: (§3) Further, cells were subjected to MTT assay to compare the relative toxicity or effect of each compound on cell proliferation and activity.
(§4) The above-described cells are cultured in a 96-well plate, to which was added with 25 μl MTT solution, and cultured in a 37° C. carbon dioxide incubator for 4 hours. Then, 100 μl Lysis buffer is added and incubated in a 37° C. carbon dioxide incubator overnight. An ELISA reader (Bio-Rad Model 450) is used to read optical density (O.D.) at 550 nm.
(§5) After being subjected to different compound treatments for 72 hours, cells were treated with a fixed amount of MTT solution for 28 hours. Then, DMSO was used to dissolve back formazan, an O. D. value was detected at wavelength in the range of 550/670 nm, and calculated accordingly the cell survival rate (as shown in Table 1).

[4] = test system: hTERT promoter (PhTERT) expression; experiment: SEAP assay (PhTERT-SEAP reporter, H1299); type: cell-based, human; conditions: Homo sapiens, NCI-H1299, PhTERT-SEAP (H1299); for activity at 1 µM: read-out: Relative SEAP activity (%); for activity at 10 µM / activity at 100 µM: read-out: Relative SEAP activity (%) (converted)
Method: H1299 were grown in RPMI 1640 media supplemented with 10% fetal bovine serum, 100 units/mL penicillin and […] streptomycin in a humidified atmosphere with 5% CO2 at 37° C. Culture media were changed every three days. To establish stable cell lines that the expression of hTERT could be monitored by a reporter system, a about 3.3 kbp DNA fragment ranging from −3338 to +1 bp of the hTERT gene (hTERT promoter, PhTERT) was subcloned upstream to a secreted alkaline phosphatase gene (SEAP) and transfected into H1299 bp electroporation. The stable clones were selected using G418. The stable clones derived from H1299 were cultured using conditions that are similar to their parental cells.
Secreted alkaline phosphatase was used as the reporter system to monitor the transcriptional activity of hTERT. Here, about 10^4 cells each were grown in 96-well plates and incubated at 37° C. for 24 hours and changed with fresh media. Varying amounts of drugs were added and cells were incubated for another 24 hours. Culture media were collected and heated at 65° C. for 10 min to inactivate heat-labile phosphatases. An equal amount of SEAP buffer (2 M diethanolamine, 1 mM MgCl2, and 20 mM L-homoarginine) was added to the media and p-nitrophenyl phosphate was added to a final concentration of 12 mM. Absorptions at 405 nm were taken, and the rate of absorption increase is determined (the increasing rate of absorbance at 405 nm was used to represent the activity of SEAP).

PC-3 = experiment: NCI 60-cell drug screen, one dose; type: cell-based, human; conditions: Prostate Cancer PC-3, 1.00E−5 Molar
Method: as §1, §2

MOLT-4 = experiment: NCI 60-cell drug screen, one dose; type: cell-based, human; conditions: Leukemia MOLT-4, 1.00E−5 Molar
Method: as §1, §2

OVCAR-8 = experiment: NCI 60-cell drug screen, one dose; type: cell-based, human; conditions: Ovarian Cancer OVCAR-8, 1.00E−5 Molar
Method: as §1, §2

NCI/ADR-RES = experiment: NCI 60-cell drug screen, one dose; type: cell-based, human; conditions: Ovarian Cancer NCI/ADR-RES, 1.00E−5 Molar
Method: as §1, §2

A549/ATCC = experiment: NCI 60-cell drug screen, one dose; type: cell-based, human; conditions: Non-Small Cell Lung Cancer A549/ATCC, 1.00E−5 Molar
Method: as §1, §2

in vitro = conditions: human, Relative MTT viability (%)
Method: as §3, §4, §5

RXF 393 = experiment: NCI 60-cell drug screen, one dose; type: cell-based, human; conditions: Renal Cancer RXF 393, 1.00E−5 Molar

## CN1CCN(Cc2nc3ccc4c(c3[nH]2)C(=O)c2ccccc2C4=O)CC1 [CL24, 2-((4-methylpiperazin-1-yl)methyl)-1H-anthra[1,2-d]imidazole-6,11-dione]
[1]
  Growth Percent, Mean: 59.85%
CCRF-CEM
  Growth Percent: 34.45%
SNB-19
  Growth Percent: 65.60%
SN12C
  Growth Percent: 48.50%
SK-MEL-28
  Growth Percent: 96.38%
[2]
  Growth Percent: 69.36%
HCC-2998
  Growth Percent: 61.90%
KM12
  Growth Percent: 55.51%
HS 578-T
  Growth Percent: 51.48%
HL-60(TB)
  Growth Percent: 65.29%
OVCAR-4
  Growth Percent: 50.98%
SR
  Growth Percent: 21.48%
HT29
  Growth Percent: 22.64%
NCI-H460
  Growth Percent: 57.35%
SF-295
  Growth Percent: 81.61%
[3]
  viability at 72 h, 1 µM: 87.4 ± 5.52%
  viability at 72 h, 10 µM: < 50%
[4]
  activity at 1 µM: 106 ± 2.94%
  activity at 10 µM: 23.2%
  activity at 100 µM: 6.23%

## O=C1c2ccccc2C(=O)c2c1ccc1nc(CN3CCN(c4ccccc4)CC3)[nH]c21 [CL27, 2-((4-phenylpiperazin-1-yl)methyl)-1H-anthra[1,2-d]imidazole-6,11-dione]
[1]
  Growth Percent, Mean: 90.15%
PC-3
  Growth Percent: 77.91%
CCRF-CEM
  Growth Percent: 74.42%
SNB-19
  Growth Percent: 103.62%
SN12C
  Growth Percent: 89.91%
SK-MEL-28
  Growth Percent: 127.46%
[2]
  Growth Percent: 75.09%
KM12
  Growth Percent: 85.80%
HS 578-T
  Growth Percent: 80.56%
MOLT-4
  Growth Percent: 55.21%
OVCAR-8
  Growth Percent: 80.89%
HL-60(TB)
  Growth Percent: 107.54%
OVCAR-4
  Growth Percent: 67.72%
SR
  Growth Percent: 43.11%
HT29
  Growth Percent: 87.57%
NCI-H460
  Growth Percent: 94.45%
NCI/ADR-RES
  Growth Percent: 80.36%
A549/ATCC
  Growth Percent: 111.76%
SF-295
  Growth Percent: 105.37%
In vitro
  viability at 72 h, 1 µM: 90.2 ± 3.86%
  viability at 72 h, 10 µM: 54.4%
  viability at 72 h, 100 µM: 18.1%
[4]
  activity at 1 µM: 92.23 ± 0.78%
  activity at 10 µM: 76.7%
  activity at 100 µM: 5.83%

## O=C1c2ccccc2C(=O)c2c1ccc1nc(CN3CCN(c4ccccn4)CC3)[nH]c21 [CL28, 2-((4-(pyridin-2-yl)piperazin-1-yl)methyl)-1H-anthra[1,2-d]imidazole-6,11-dione]
[1]
  Growth Percent, Mean: 87.65%
PC-3
  Growth Percent: 89.10%
SNB-19
  Growth Percent: 81.00%
SN12C
  Growth Percent: 79.85%
SK-MEL-28
  Growth Percent: 114.23%
[2]
  Growth Percent: 68.23%
HCC-2998
  Growth Percent: 92.28%
KM12
  Growth Percent: 95.03%
HS 578-T
  Growth Percent: 111.04%
MOLT-4
  Growth Percent: 61.76%
OVCAR-8
  Growth Percent: 88.07%
HL-60(TB)
  Growth Percent: 97.31%
OVCAR-4
  Growth Percent: 64.57%
HT29
  Growth Percent: 75.79%
NCI-H460
  Growth Percent: 79.98%
NCI/ADR-RES
  Growth Percent: 81.16%
A549/ATCC
  Growth Percent: 91.07%
SF-295
  Growth Percent: 92.70%
[3]
  viability at 72 h, 1 µM: 90.5 ± 4.34%
  viability at 72 h, 10 µM: 69.5%
  viability at 72 h, 100 µM: 19.8%
[4]
  activity at 1 µM: 91.2 ± 2.69%
  activity at 10 µM: 57.1%
  activity at 100 µM: 1.12%
RXF 393
  Growth Percent: 89.67%

## CN(CCc1ccccn1)Cc1nc2ccc3c(c2[nH]1)C(=O)c1ccccc1C3=O [CL07, 2-((N-methyl-2-(pyridin-2-yl)ethanamino)methyl)-1H-anthra[1,2-d]imidazole-6,11-dione]
[1]
  Growth Percent, Mean: 89.07%
PC-3
  Growth Percent: 99.83%
CCRF-CEM
  Growth Percent: 39.91%
SNB-19
  Growth Percent: 87.77%
SN12C
  Growth Percent: 91.19%
SK-MEL-28
  Growth Percent: 97.01%
[2]
  Growth Percent: 69.60%
HCC-2998
  Growth Percent: 95.82%
KM12
  Growth Percent: 89.03%
HS 578-T
  Growth Percent: 108.96%
MOLT-4
  Growth Percent: 47.54%
OVCAR-8
  Growth Percent: 80.59%
HL-60(TB)
  Growth Percent: 120.08%
OVCAR-4
  Growth Percent: 80.99%
SR
  Growth Percent: 70.10%
HT29
  Growth Percent: 84.18%
NCI-H460
  Growth Percent: 90.27%
NCI/ADR-RES
  Growth Percent: 86.11%
A549/ATCC
  Growth Percent: 106.30%
SF-295
  Growth Percent: 105.86%
[3]
  viability at 72 h, 1 µM: 104.3 ± 0.96%
[4]
  activity at 1 µM: 96.5 ± 5.53%
  activity at 10 µM: < 50%
  activity at 100 µM: -3.16%

## CCN(CC)Cc1nc2ccc3c(c2[nH]1)C(=O)c1ccccc1C3=O [CL04, 2-((diethylamino)methyl)-1H-anthra[1,2-d]imidazole-6,11-dione]
[1]
  Growth Percent, Mean: 69.66%
CCRF-CEM
  Growth Percent: 47.88%
SNB-19
  Growth Percent: 75.06%
SN12C
  Growth Percent: 69.04%
SK-MEL-28
  Growth Percent: 92.41%
[2]
  Growth Percent: 49.50%
HCC-2998
  Growth Percent: 80.61%
KM12
  Growth Percent: 76.89%
HS 578-T
  Growth Percent: 70.37%
HL-60(TB)
  Growth Percent: 68.18%
OVCAR-4
  Growth Percent: 65.69%
SR
  Growth Percent: 42.38%
HT29
  Growth Percent: 56.02%
NCI-H460
  Growth Percent: 55.50%
NCI/ADR-RES
  Growth Percent: 65.32%
SF-295
  Growth Percent: 89.56%
[3]
  viability at 72 h, 1 µM: 101 ± 6.67%
  viability at 72 h, 10 µM: > 50%
[4]
  activity at 1 µM: 91.2 ± 4.38%
  activity at 10 µM: < 50%
  activity at 100 µM: 0.13%

## O=C1c2ccccc2C(=O)c2c1ccc1nc(CN3CCCCC3)[nH]c21 [CL16, 2-((piperidin-1-yl)methyl)-1H-anthra[1,2-d]imidazole-6,11-dione]
[1]
  Growth Percent, Mean: 75.35%
PC-3
  Growth Percent: 81.94%
CCRF-CEM
  Growth Percent: 102.47%
SNB-19
  Growth Percent: 76.33%
SN12C
  Growth Percent: 96.96%
SK-MEL-28
  Growth Percent: 107.08%
[2]
  Growth Percent: 61.84%
HCC-2998
  Growth Percent: 82.81%
KM12
  Growth Percent: 77.40%
HS 578-T
  Growth Percent: 50.98%
MOLT-4
  Growth Percent: 22.77%
HL-60(TB)
  Growth Percent: 56.89%
OVCAR-4
  Growth Percent: 65.27%
SR
  Growth Percent: 57.64%
HT29
  Growth Percent: 61.38%
NCI-H460
  Growth Percent: 64.61%
NCI/ADR-RES
  Growth Percent: 73.52%
[3]
  viability at 72 h, 1 µM: 111 ± 8.66%
  viability at 72 h, 100 µM: 19.6%
[4]
  activity at 1 µM: 75.8 ± 26.9%
  activity at 10 µM: < 50%
  activity at 100 µM: 6.78%

Reference: US8124637B2, “Anthra [1, 2-d]imidazole-6,11-dione derivatives, preparation method and application thereof” (National Defense Medical Center, priority 2010, dated 2012)
